Test results published in patent US20040197932A1, “Bio-vehicle, biosensor and biotransducer system” (priority 2003, published 2004).

System: major urinary protein (MUP)
Assay: QCM ligand-binding test: shift of resonant frequency on binding of evaporated ligand to immobilized MUP
Set-up: species or system mouse
Settings: MUP immobilized on 10 MHz AT-cut QCM chip; odorant sample evaporated at 50° C. and pumped into detection chamber
Method: The preferred electronic nose technology of the present invention is piezoelectric-based. Measurements are performed by detecting the binding of analytes (ligands) onto the sensing elements immobilized on piezoelectric materials, e.g., quartz crystal. The adsorption of ligand induces a shift in the oscillation frequency proportional to the mass of the encountered ligand. The operating performance of the present invention is described as bellow:
Gold electrodes of quartz crystal microbalance (QCM) surface are cleaned by immersing in 1.2 N NaOH and then in 1.2 N HCl. After rinsing and drying, the QCM electrodes are soaked in 1 mM 2-aminoethanethiol/DMSO solution for 12 hours and washed by double distilled water for 10 min. Then the QCM electrodes are dried in oven and dripped with 4 μl of 2.5% glutaldehyde for 1 hour. Two μl of 1% polyethylenimine/methanol (PEI/MeOH) solution are added onto activated surface of QCM in a closed chamber at room temperature for 12 hours. Finally, the QCM chips are washed two times and dried in oven.
Activated QCM chips are dipped in 2.5% glutaldehyde solution for 1 hour, and then MUP solution (20 μg/ml in 10 mM phosphate buffer, pH 7.4) are added and kept for 1 hour. Blocking the activated surface of QCM chips is performed by 100 mM glycine.
A sample is respectively applied in a syringe and kept in an oven at 50° C. An AT-cut QCM device with basic resonant frequency of 10 MHz is employed to determine the adsorption of odorant vapor. The evaporated odorant sample is pumped into the detection chamber of QCM and the shift of resonant frequency is recorded.
A variety of ligands are surveyed according to the above procedures. Table I lists the changes of signal in frequency upon the bindings of different ligands, including phenylacetate, propylbutyrate, hexylbutyrate, benzylbutyrate, propyltiglate, hexyltiglate, and benzyltiglate.

| Compound | Change of Signal (in frequency f) |
| --- | --- |
| CCCC(=O)OCc1ccccc1 [benzylbutyrate] | 43 |
| C/C=C(\C)C(=O)OCc1ccccc1 [benzyltiglate] | 43 |
| CCCCCCOC(=O)CCC [hexylbutyrate] | 23 |
| C/C=C(\C)C(=O)OCCCCCC [hexyltiglate] | 55 |
| CCCOC(=O)CCC [propylbutyrate] | 26 |
| C/C=C(\C)C(=O)OCCC [propyltiglate] | 29 |
